Test in all cases: In vitro antiproliferation assay, General Procedure 2 (CCK-8)
What all share (assay type): cell-based

One experiment relates to MV4-11 cell line. As to conditions: Homo sapiens, MV4-11; Biphenotypic B myelomonocytic leukemia; read-out: IC50, MV4-11. In short, it runs like this: (§1)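 CCK-8 readout of proliferation after compound exposure (top 100 nM, 4-fold dilution series). Adherent cells: plated 18 h prior, treated 5 d. Suspension cells: seeded same day, treated 3 d. Technical triplicates, three biological replicates.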

For a further experiment, the system named is RPMI7951 cell line. As to conditions: Homo sapiens, RPMI-7951; Skin. The procedure, abridged: as §1
The next experiment relates to Molp8 cell line. As to conditions: Homo sapiens, MOLP-8; MM. The procedure, abridged: as §1
In the next experiment the test system is OCI-M1 cell line. Particulars: Acute myeloid leukemia. In short, it runs like this: as §1
For the next experiment, the system named is BT-474 cell line. As to conditions: Homo sapiens, Breast, read-out: IC50, BT474. The procedure, abridged: as §1
The subject of another experiment is KE39 cell line. Particulars: Gastric. The procedure, abridged: as §1
The test system of a further experiment is SK-BR-3 cell line. As to conditions: Homo sapiens, Breast, read-out: IC50, SKBR3. The procedure, abridged: as §1
The next experiment deals with HL-60 cell line. Particulars: Homo sapiens, HL-60; AML; read-out: IC50, HL-60. The procedure, abridged:
as §1

A further experiment relates to Daudi cell line. Particulars: Homo sapiens, NHL. In short, it runs like this:
as §1

The test system of experiment [1] is ASKA synovial sarcoma cell line. In short, it runs like this:
as §1

The test system of another experiment is MOLM13 cell line. As to conditions: Homo sapiens, MOLM-13; AML; read-out: IC50, MOLM13. In short, it runs like this: as §1
The test system of another experiment is ML-2 cell line. As to conditions: Homo sapiens, ML-2; Acute myelomonocytic leukemia; read-out: IC50, ML-2. The procedure, abridged: as §1

Structures are written as SMILES.

Usually IC50 stands for the midpoint of a concentration-inhibition curve. Turning to `CNCCOCCc1ccc(NC(=O)NCc2ccc3c(c2)CN(C2CCC(=O)NC2=O)C3=O)cc1Cl` (stereo not drawn) [Compound P1, 1-(3-chloro-4-[2-[2-(methylamino)ethoxy]ethyl]phenyl)-3-[[2-(2,6-dioxopiperidin-3-yl)-1-oxo-3H-isoindol-5-yl]methyl]urea], the IC50 in the experiment on MV4-11 cell line is 2.72 nM; in the experiment on RPMI7951 cell line, 97.1 nM; in the experiment with Molp8 cell line, 23.7 nM; in the experiment on OCI-M1 cell line, above 1000 nM; in the experiment on BT-474 cell line it was 13 nM; in the experiment with KE39 cell line, above 1000 nM. Further, the IC50 in the experiment on SK-BR-3 cell line was determined as 100 nM; with HL-60 cell line, 12.3 nM; with Daudi cell line, 47.4 nM; in experiment [1], 71.2 nM; in the experiment on MOLM13 cell line, 24.8 nM; in the experiment on ML-2 cell line, 1.86 nM.
